The target of one assay is T1, BK2 -receptor (Rattus norvegicus, UniProt P25023).
T1 construct: guinea-pig ileum (GPI), rat uterus (RU) and rabbit jugular vein (RJV); from tissue; host or cells: rat uterus
T1 sequence (P25023 1-396): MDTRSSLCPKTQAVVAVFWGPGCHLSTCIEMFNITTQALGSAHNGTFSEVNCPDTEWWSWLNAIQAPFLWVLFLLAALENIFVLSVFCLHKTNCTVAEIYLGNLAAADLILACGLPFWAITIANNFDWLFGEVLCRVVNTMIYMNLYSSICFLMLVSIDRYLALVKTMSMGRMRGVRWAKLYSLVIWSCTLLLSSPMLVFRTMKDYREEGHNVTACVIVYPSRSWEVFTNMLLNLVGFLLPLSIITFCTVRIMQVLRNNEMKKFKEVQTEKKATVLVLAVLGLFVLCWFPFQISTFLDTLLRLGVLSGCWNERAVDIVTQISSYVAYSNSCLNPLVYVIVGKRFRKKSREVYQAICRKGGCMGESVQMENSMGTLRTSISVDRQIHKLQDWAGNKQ
Nature of the assay: rat uterus (RU) in vitro, antagonism of BK. Here is the method:
Thus, in vitro studies were performed on standard assay systems, namely, guinea-pig ileum (GPI), rat uterus (RU) and rabbit jugular vein (RJV). […] The potency of each compound was assessed as a pA2 value according to the method of Arunlakshana & Schild, Br. J. Pharmacol. Chemother., 14:48-58 (1959). The pA2 can be defined as the negative logarithm of the molar concentration of the antagonist in the presence of which the potency of the agonist is reduced two-fold, i.e., twice the amount of agonist is required to produce a given response in the presence of, than in the absence of, the antagonist. A high potency of antagonism is indicated by a high pA2 value. i.e., a low concentration of antagonist is effective.
The percentage recovery (% Rec) was also determined for compounds with respect to each assay.
With respect to duration of activity, it is noted that after exposure to the highest concentration of antagonist, each tissue was washed extensively and then assessed for recovery from the antagonist effect.
Potency in the rat uterus assay was assessed as described above and pA2 values determined.

The next assay deals with T2, BK1 receptor (Oryctolagus cuniculus, UniProt P48748).
T2 sequence (P48748 1-352): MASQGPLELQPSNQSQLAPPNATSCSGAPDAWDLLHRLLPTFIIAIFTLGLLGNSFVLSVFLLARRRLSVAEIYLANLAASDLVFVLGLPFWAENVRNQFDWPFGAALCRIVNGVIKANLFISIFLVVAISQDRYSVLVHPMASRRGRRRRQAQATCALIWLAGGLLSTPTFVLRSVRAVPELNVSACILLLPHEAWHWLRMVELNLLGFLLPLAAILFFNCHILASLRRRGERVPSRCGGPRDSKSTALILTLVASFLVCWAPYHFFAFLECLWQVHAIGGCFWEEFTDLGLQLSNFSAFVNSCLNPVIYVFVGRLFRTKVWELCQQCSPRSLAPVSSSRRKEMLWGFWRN
The assay can be described thus: rabbit aorta in vitro, reversal of des-Arg^9 -BK contraction. Also noted: on rabbit aorta (BK1 -receptor) in vitro; from tissue; host or cells: rabbit aorta. The conditions noted are these: negative log of molar concentration causing 50% reversal of des-Arg^9 -BK (10^-7 M) contraction. Here is the method: Each antagonist was then added, in a cumulative fashion, on top of the contraction and the negative log of the molar concentration of the antagonist causing a 50% reversal (IC50) of the […] measured.

Each structure is given as a SMILES string. Entries after “also recorded” stand apart in the source; their conditions may differ. Peptide text beside a SMILES is read from it.

For `CC(C)C[C@H](NC(=O)[C@@H]1CCCN1C(=O)[C@H](CO)NC(=O)[C@H](Cc1ccccc1)NC(=O)CNC(=O)[C@@H]1C[C@@H](O)CN1C(=O)[C@@H]1CCCN1C(=O)[C@H](CSC1CC(=O)N(CCCCCCN2C(=O)CC(SC[C@H](NC(=O)[C@H](Cc3ccccc3)NC(=O)CNC(=O)[C@@H]3C[C@@H](O)CN3C(=O)[C@@H]3CCCN3C(=O)[C@H](CCCNC(=N)N)NC(=O)[C@H](N)CCCNC(=N)N)C(=O)N[C@H](Cc3ccccc3)C(=O)N[C@@H](CC(C)C)C(=O)N[C@@H](CCCNC(=N)N)C(=O)O)C2=O)C1=O)NC(=O)[C@@H](N)CCCCN)C(=O)O` (stereo partly drawn) [CP-0382] (HELM PEPTIDE1{[dR].R.P.[Hyp].G.F.C.[dF].L.R}|PEPTIDE2{K.C.P.[Hyp].G.F.S.P.L}|CHEM1{[O=C1CC([*:1])C(=O)N1CCCCCCN1C(=O)CC([*:2])C1=O]}$PEPTIDE1,CHEM1,7:R3-1:R1|PEPTIDE2,CHEM1,2:R3-1:R2$$$V2.0; N-terminus and C-terminus assumed), the “pA2 rat uterus (BK2)” value at BK2 -receptor (against BK) is “Agonist; also recorded: substantial partial agonism”.

For `CC(C)C[C@H](NC(=O)[C@@H](Cc1ccccc1)NC(=O)[C@H](CO)NC(=O)[C@H](Cc1ccccc1)NC(=O)CNC(=O)[C@@H]1C[C@@H](O)CN1C(=O)[C@@H]1CCCN1C(=O)[C@H](CS)NC(=O)[C@H](N)CCCNC(=N)N)C(=O)O` [CP-0376, D R--C--P--J--G--F--S--D F--L] (HELM PEPTIDE1{[dR].C.P.[Hyp].G.F.S.[dF].L}$$$$V2.0; N-terminus and C-terminus assumed), on BK1 receptor, the “BK1 rabbit aorta IC50” value is 4.9 ± 0.3.

On to `CC(C)C[C@H](NC(=O)[C@@H](Cc1ccccc1)NC(=O)[C@H](CO)NC(=O)[C@H](CSC1CC(=O)N(CCCCCCN2C(=O)CC(SC[C@H](NC(=O)CNC(=O)[C@@H]3C[C@@H](O)CN3C(=O)[C@@H]3CCCN3C(=O)[C@H](CCCNC(=N)N)NC(=O)[C@H](N)CCCNC(=N)N)C(=O)N[C@@H](CO)C(=O)N[C@H](Cc3ccccc3)C(=O)N[C@@H](CC(C)C)C(=O)N[C@@H](CCCNC(=N)N)C(=O)O)C2=O)C1=O)NC(=O)CNC(=O)[C@@H]1C[C@@H](O)CN1C(=O)[C@@H]1CCCN1C(=O)[C@H](CCCNC(=N)N)NC(=O)[C@H](N)CCCNC(=N)N)C(=O)N[C@@H](CCCNC(=N)N)C(=O)O` (stereo partly drawn) [CP-0156] (HELM PEPTIDE1{[dR].R.P.[Hyp].G.C.S.[dF].L.R}|PEPTIDE2{[dR].R.P.[Hyp].G.C.S.[dF].L.R}|CHEM1{[O=C1CC([*:1])C(=O)N1CCCCCCN1C(=O)CC([*:2])C1=O]}$PEPTIDE1,CHEM1,6:R3-1:R1|PEPTIDE2,CHEM1,6:R3-1:R2$$$V2.0), for which, at BK2 -receptor (percentage recovery after washing), the “% REC rat uterus” value amounted to 75%.

As for `CC(C)C[C@H](NC(=O)[C@@H](Cc1ccccc1)NC(=O)[C@H](CO)NC(=O)[C@H](Cc1ccccc1)NC(=O)CNC(=O)[C@@H]1C[C@@H](O)CN1C(=O)[C@@H]1CCCN1C(=O)[C@H](CCCNC(=N)N)NC(=O)[C@H](N)CCCNC(=N)N)C(=O)O` [CP-0253, D R--R--P--J--G--F--S--D F--L] (HELM PEPTIDE1{[dR].R.P.[Hyp].G.F.S.[dF].L}$$$$V2.0; N-terminus and C-terminus assumed), the “BK1 rabbit aorta IC50” value at BK1 receptor worked out at 6.9 ± 0.1.

Consider `CC(C)C[C@H](NC(=O)[C@@H](Cc1ccccc1)NC(=O)[C@H](CSC1CC(=O)N(CCCCCCN2C(=O)CC(SC[C@H](NC(=O)[C@@H](Cc3c[nH]c4ccccc34)NC(=O)[C@@H](NC(=O)[C@@H](Cc3c[nH]c4ccccc34)NC(=O)[C@H](Cc3ccc(O)cc3)NC(=O)[C@@H](N)CC(=O)O)C(C)C)C(=O)N[C@@H](CCCNC(=N)N)C(N)=O)C2=O)C1=O)NC(=O)[C@H](Cc1ccccc1)NC(=O)CNC(=O)[C@@H]1C[C@@H](O)CN1C(=O)[C@@H]1CCCN1C(=O)[C@H](CCCNC(=N)N)NC(=O)[C@H](N)CCCNC(=N)N)C(=O)N[C@@H](CCCNC(=N)N)C(=O)O` (stereo partly drawn) [CP-0416] (HELM PEPTIDE1{[dR].R.P.[Hyp].G.F.C.[dF].L.R}|PEPTIDE2{D.Y.[dW].V.[dW].C.R.[am]}|CHEM1{[O=C1CC([*:1])C(=O)N1CCCCCCN1C(=O)CC([*:2])C1=O]}$PEPTIDE1,CHEM1,7:R3-1:R1|PEPTIDE2,CHEM1,6:R3-1:R2$$$V2.0), for which, on BK2 -receptor (against BK), the “pA2 rat uterus (BK2)” value is 8.7 ± 0.2.

With `CC(C)C[C@H](NC(=O)[C@@H](Cc1ccccc1)NC(=O)[C@H](CSC1CC(=O)N(CCCCCCN2C(=O)CC(SC[C@H](NC(=O)[C@@H](Cc3c[nH]c4ccccc34)NC(=O)[C@H](Cc3ccc(O)cc3)NC(=O)[C@@H](N)CC(=O)O)C(=O)N[C@H](Cc3c[nH]c4ccccc34)C(=O)N[C@H](Cc3c[nH]c4ccccc34)C(=O)N[C@@H](CCCNC(=N)N)C(N)=O)C2=O)C1=O)NC(=O)[C@H](Cc1ccccc1)NC(=O)CNC(=O)[C@@H]1C[C@@H](O)CN1C(=O)[C@@H]1CCCN1C(=O)[C@H](CCCNC(=N)N)NC(=O)[C@H](N)CCCNC(=N)N)C(=O)N[C@@H](CCCNC(=N)N)C(=O)O` (stereo partly drawn) [CP-0414] (HELM PEPTIDE1{[dR].R.P.[Hyp].G.F.C.[dF].L.R}|PEPTIDE2{D.Y.[dW].C.[dW].[dW].R.[am]}|CHEM1{[O=C1CC([*:1])C(=O)N1CCCCCCN1C(=O)CC([*:2])C1=O]}$PEPTIDE1,CHEM1,7:R3-1:R1|PEPTIDE2,CHEM1,4:R3-1:R2$$$V2.0), on BK2 -receptor (against BK), the “pA2 rat uterus (BK2)” value was found to be 7.8 ± 0.1.

`CC(C)C[C@H](NC(=O)[C@@H](Cc1ccccc1)NC(=O)[C@H](CSC1CC(=O)N(CCN2C(=O)CC(SC[C@H](NC(=O)[C@H](Cc3ccccc3)NC(=O)CNC(=O)[C@@H]3C[C@@H](O)CN3C(=O)[C@@H]3CCCN3C(=O)[C@H](CCCNC(=N)N)NC(=O)[C@H](N)CCCNC(=N)N)C(=O)N[C@H](Cc3ccccc3)C(=O)N[C@@H](CC(C)C)C(=O)N[C@@H](CCCNC(=N)N)C(=O)O)C2=O)C1=O)NC(=O)[C@H](Cc1ccccc1)NC(=O)CNC(=O)[C@@H]1C[C@@H](O)CN1C(=O)[C@@H]1CCCN1C(=O)[C@H](CCCNC(=N)N)NC(=O)[C@H](N)CCCNC(=N)N)C(=O)N[C@@H](CCCNC(=N)N)C(=O)O` (stereo partly drawn) [CP-0162] (HELM PEPTIDE1{[dR].R.P.[Hyp].G.F.C.[dF].L.R}|PEPTIDE2{[dR].R.P.[Hyp].G.F.C.[dF].L.R}|CHEM1{[O=C1CC([*:1])C(=O)N1CCN1C(=O)CC([*:2])C1=O]}$PEPTIDE1,CHEM1,7:R3-1:R1|PEPTIDE2,CHEM1,7:R3-1:R2$$$V2.0): on BK2 -receptor (against BK, read-out: pA2 rat uterus (BK2) (converted)), the Kb was 3.98 nM.

Take `N=C(N)NCCC[C@@H](N)C(=O)N[C@@H](CS)C(=O)N1CCC[C@H]1C(=O)N1C[C@H](O)C[C@H]1C(=O)NCC(=O)N[C@@H](Cc1ccccc1)C(=O)N[C@@H](CO)C(=O)N1Cc2ccccc2C[C@@H]1C(=O)N1[C@H](C(=O)O)C[C@@H]2CCCC[C@@H]21` [CP-0363, D R--C--P--J--G--F--S--D Tic--Oic] (HELM PEPTIDE1{[dR].C.P.[Hyp].G.F.S.[O=C([C@H]1Cc2ccccc2CN1[*:1])[*:2]].[O=C(O)[C@@H]1C[C@@H]2CCCC[C@@H]2N1[*:1]]}$$$$V2.0; N-terminus and C-terminus assumed): on BK1 receptor, the “BK1 rabbit aorta IC50” value is on record as 6.2 ± 0.3.

In the case of `CC(C)C[C@H](NC(=O)[C@@H](Cc1ccccc1)NC(=O)[C@H](CSC1CC(=O)N(CCCCCCN2C(=O)CC(SC[C@H](NC(=O)[C@@H](NC(=O)[C@@H](Cc3c[nH]c4ccccc34)NC(=O)[C@H](Cc3ccc(O)cc3)NC(=O)[C@@H](N)CC(=O)O)C(C)C)C(=O)N[C@H](Cc3c[nH]c4ccccc34)C(=O)N[C@@H](CCCNC(=N)N)C(N)=O)C2=O)C1=O)NC(=O)[C@H](Cc1ccccc1)NC(=O)CNC(=O)[C@@H]1C[C@@H](O)CN1C(=O)[C@@H]1CCCN1C(=O)[C@H](CCCNC(=N)N)NC(=O)[C@H](N)CCCNC(=N)N)C(=O)N[C@@H](CCCNC(=N)N)C(=O)O` (stereo partly drawn) [CP-0415] (HELM PEPTIDE1{[dR].R.P.[Hyp].G.F.C.[dF].L.R}|PEPTIDE2{D.Y.[dW].V.C.[dW].R.[am]}|CHEM1{[O=C1CC([*:1])C(=O)N1CCCCCCN1C(=O)CC([*:2])C1=O]}$PEPTIDE1,CHEM1,7:R3-1:R1|PEPTIDE2,CHEM1,5:R3-1:R2$$$V2.0), on BK2 -receptor (against BK), the “pA2 rat uterus (BK2)” value was found to be 7.8 ± 0.1.

(Values after patent publication US5635593A (priority 1995, dated 1997).)
